Assays:
Test in all cases: Protein kinase inhibition assay
Format in all cases: biochemical
[1] = target: CK1δ(h) (Homo sapiens, UniProt P48730); conditions: read-out: percent residual activity of CK1δ(h)
Description: (§1) Certain compounds were tested for activity in protein kinase inhibition assays. All substrates were dissolved and diluted to working stocks in de-ionized water, apart from histone H1 (10× working stock in 20 mM MOPS pH 7.0), PDKtide (10× working stock in 50 mM Tris pH 7.0) ATF2 (which is typically stored at a 20× working stock in 50 mM Tris pH 7.5, 150 mM NaCl, 0.1 mM EGTA, 0.03% Brij-35, 50% glycerol, 1 mM benzamidine, 0.2 mM PMSF and 0.1% R-mercaptoethanol), KKLNRTLSFAEPG (SEQ ID NO:203) and RRRLSFAEPG (SEQ ID NO:204) (50 mM HEPES pH 7.4) and GGEEEEYFELVKKKK (SEQ ID NO:205) (20 mM MOPS pH 7.0). All kinases were pre-diluted to a 10× working concentration prior to addition into the assay. The composition of the dilution buffer for each kinase is detailed below.
(§2) In a final reaction volume of 25 μl, CK1δ (h) (5-10 mU) is incubated with 8 mM MOPS pH 7.0, 0.2 mM EDTA, 200 μM KRRRALS(p)VASLPGL (SEQ ID NO:214), 10 mM MgAcetate and [gamma-33P-ATP] (specific activity approx. 500 cpm/pmol, concentration as required). The reaction is initiated by the addition of the MgATP mix. After incubation for 40 minutes at room temperature, the reaction is stopped by the addition of 5 μl of a 3% phosphoric acid solution. 10 μl of the reaction is then spotted onto a P30 filtermat and washed three times for 5 minutes in 75 mM phosphoric acid and once in methanol prior to drying and scintillation counting.

[2] = target: EGFR(h) (Homo sapiens, UniProt P00533); conditions: read-out: percent residual activity of EGFR(h)
Description: as §1
as §2, with “EGFR” for “CK1δ”, “10 mM MnCl2, 0.1 mg/ml poly(Glu, Tyr) 4:1,” for “200 μM KRRRALS(p)VASLPGL (SEQ ID NO:214),”, “Filtermat A” for “P30 filtermat”

[3] = target: PDGFRα(h) (Homo sapiens, UniProt P16234); conditions: read-out: percent residual activity of PDGFRα(h)
Description: as §1
as §2, with “PDGFRα” for “CK1δ”, “0.1 mg/ml poly(Glu, Tyr) 4:1, 10 mM MnCl2,” for “200 μM KRRRALS(p)VASLPGL (SEQ ID NO:214),”, “Filtermat A” for “P30 filtermat”

[4] = target: PKCβII(h) (Homo sapiens, UniProt P05771); conditions: read-out: percent residual activity of PKCβII(h)
Description: as §1
(§3) In a final reaction volume of 25 μl, PKCβII (h) (5-10 mU) is incubated with 20 mM HEPES pH 7.4, 0.03% Triton X-100, […], 0.1 mg/ml phosphatidylserine, 10 μg/ml diacylglycerol, 0.1 mg/ml histone H1, 10 mM MgAcetate and [gamma-33P-ATP] (specific activity approx. 500 cpm/pmol, concentration as required). The reaction is initiated by the addition of the MgATP mix. After incubation for 40 minutes at room temperature, the reaction is stopped by the addition of 5 μl of a 3% phosphoric acid solution. […]

[5] = target: PKCγ(h) (Homo sapiens, UniProt P05129); conditions: read-out: percent residual activity of PKCγ(h)
Description: as §1
as §3, with “PKCγ” for “PKCβII”

[6] = target: PKCζ(h) (Homo sapiens, UniProt Q05513); conditions: read-out: percent residual activity of PKCζ(h)
Description: as §1
as §2, with “PKCξ” for “CK1δ”, “50” for “200”, “ERMRPRKRQGSVRRRV” for “KRRRALS(p)VASLPGL”, “NO:224),” for “NO:214),”

Sequence of CK1δ(h) (P48730 whole entry): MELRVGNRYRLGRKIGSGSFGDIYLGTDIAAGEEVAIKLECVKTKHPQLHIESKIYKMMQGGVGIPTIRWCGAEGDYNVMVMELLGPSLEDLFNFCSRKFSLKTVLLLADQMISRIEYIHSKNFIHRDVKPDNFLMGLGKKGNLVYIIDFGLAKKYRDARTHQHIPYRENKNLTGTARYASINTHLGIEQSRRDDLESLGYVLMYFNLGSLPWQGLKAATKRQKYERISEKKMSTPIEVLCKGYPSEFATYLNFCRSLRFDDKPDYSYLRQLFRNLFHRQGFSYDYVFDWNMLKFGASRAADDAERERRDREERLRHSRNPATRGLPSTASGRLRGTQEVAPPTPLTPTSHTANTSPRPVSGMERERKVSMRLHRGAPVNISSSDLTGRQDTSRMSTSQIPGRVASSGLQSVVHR
Sequence of EGFR(h) (P00533 25-1210): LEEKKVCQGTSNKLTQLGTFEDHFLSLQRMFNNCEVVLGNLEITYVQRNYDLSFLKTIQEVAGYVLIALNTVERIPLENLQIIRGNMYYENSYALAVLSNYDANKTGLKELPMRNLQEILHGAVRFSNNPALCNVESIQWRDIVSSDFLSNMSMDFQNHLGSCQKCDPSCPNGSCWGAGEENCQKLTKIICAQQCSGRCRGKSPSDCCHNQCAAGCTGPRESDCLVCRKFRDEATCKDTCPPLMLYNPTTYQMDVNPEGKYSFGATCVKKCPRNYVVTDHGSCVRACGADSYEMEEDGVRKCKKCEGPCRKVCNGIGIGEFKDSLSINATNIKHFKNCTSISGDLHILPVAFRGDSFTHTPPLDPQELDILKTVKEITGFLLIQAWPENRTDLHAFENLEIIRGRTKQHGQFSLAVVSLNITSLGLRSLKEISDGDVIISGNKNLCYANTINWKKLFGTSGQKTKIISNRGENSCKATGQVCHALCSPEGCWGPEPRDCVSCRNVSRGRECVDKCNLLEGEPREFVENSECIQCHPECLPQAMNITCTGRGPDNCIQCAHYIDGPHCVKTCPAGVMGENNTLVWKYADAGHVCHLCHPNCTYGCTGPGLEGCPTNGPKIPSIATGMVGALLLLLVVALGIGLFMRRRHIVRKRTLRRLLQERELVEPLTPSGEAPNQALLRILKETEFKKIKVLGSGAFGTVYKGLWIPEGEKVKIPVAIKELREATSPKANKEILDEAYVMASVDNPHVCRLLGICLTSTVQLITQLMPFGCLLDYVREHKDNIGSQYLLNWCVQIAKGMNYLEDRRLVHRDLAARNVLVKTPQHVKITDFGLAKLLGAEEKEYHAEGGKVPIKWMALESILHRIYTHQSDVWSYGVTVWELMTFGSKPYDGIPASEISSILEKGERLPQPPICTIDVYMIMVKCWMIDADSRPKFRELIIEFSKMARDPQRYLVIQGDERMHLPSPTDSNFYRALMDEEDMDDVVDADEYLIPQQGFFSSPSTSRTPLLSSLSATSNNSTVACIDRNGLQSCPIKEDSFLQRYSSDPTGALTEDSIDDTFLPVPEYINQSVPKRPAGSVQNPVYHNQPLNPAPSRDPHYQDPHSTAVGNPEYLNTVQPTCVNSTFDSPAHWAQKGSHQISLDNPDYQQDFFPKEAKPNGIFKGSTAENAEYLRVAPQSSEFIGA
Sequence of PDGFRα(h) (P16234 24-1089): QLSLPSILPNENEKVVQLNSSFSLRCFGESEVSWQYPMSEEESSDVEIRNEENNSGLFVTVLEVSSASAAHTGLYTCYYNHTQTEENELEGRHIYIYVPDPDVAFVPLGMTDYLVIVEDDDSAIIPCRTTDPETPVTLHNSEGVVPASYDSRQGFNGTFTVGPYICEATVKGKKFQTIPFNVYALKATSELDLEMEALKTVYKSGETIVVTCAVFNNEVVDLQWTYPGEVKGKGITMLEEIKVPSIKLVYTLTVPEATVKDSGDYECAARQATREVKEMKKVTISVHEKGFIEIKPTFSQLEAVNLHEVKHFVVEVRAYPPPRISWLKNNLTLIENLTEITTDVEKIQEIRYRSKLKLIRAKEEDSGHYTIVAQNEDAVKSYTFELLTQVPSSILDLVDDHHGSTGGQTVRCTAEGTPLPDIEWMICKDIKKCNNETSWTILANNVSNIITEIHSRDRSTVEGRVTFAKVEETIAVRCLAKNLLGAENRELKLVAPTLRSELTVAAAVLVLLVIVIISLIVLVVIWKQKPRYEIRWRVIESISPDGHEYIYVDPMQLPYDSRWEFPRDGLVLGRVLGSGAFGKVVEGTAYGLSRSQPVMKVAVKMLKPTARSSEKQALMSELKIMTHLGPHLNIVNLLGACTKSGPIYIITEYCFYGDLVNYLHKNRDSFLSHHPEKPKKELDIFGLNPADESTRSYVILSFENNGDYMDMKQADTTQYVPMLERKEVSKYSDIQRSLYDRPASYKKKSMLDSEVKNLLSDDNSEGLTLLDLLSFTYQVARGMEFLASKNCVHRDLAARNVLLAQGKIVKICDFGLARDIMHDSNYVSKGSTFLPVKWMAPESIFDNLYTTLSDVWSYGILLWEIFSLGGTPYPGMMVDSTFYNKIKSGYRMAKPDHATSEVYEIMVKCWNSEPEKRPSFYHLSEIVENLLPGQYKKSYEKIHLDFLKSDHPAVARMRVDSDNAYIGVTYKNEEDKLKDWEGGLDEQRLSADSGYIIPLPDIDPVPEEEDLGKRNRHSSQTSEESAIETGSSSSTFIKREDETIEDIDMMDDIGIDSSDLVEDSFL
Sequence of PKCβII(h) (P05771 1-673 isoform P05771-2): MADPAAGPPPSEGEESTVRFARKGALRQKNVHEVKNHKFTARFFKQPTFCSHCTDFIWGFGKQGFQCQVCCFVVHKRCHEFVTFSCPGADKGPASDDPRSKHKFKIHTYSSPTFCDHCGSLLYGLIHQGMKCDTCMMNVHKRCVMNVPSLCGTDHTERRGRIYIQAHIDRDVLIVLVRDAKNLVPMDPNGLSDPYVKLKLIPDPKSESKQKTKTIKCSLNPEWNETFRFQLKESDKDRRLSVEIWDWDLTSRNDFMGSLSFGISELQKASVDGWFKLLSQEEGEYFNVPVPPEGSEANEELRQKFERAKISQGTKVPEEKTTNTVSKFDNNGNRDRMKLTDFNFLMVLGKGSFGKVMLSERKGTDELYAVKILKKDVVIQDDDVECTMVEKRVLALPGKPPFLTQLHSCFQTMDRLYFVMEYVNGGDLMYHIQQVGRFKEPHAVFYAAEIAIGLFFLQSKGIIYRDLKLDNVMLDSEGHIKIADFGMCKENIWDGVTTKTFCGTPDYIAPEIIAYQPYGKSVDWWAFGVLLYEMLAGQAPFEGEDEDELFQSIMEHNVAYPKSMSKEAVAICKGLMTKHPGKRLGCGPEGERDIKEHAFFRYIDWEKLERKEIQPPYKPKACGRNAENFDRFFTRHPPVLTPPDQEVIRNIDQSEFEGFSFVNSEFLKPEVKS
Sequence of PKCζ(h) (Q05513 whole entry): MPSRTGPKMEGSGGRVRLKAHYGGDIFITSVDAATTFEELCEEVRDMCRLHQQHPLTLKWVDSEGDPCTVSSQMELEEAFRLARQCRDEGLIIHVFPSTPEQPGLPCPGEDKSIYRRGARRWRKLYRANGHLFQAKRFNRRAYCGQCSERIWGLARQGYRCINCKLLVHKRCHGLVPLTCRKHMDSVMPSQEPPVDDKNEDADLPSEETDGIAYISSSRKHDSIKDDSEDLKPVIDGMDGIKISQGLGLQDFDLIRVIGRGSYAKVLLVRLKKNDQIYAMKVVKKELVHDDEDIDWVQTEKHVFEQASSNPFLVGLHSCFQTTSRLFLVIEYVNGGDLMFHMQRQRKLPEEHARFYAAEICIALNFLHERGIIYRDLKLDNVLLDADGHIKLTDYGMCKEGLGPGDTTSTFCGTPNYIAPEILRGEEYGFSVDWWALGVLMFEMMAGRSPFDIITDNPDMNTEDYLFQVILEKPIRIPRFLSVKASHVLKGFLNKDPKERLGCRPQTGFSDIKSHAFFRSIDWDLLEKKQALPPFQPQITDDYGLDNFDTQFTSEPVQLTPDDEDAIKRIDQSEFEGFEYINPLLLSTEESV

SMILES	remaining activity at 2.5 µM [1]	remaining activity at 2.5 µM [2]	remaining activity at 2.5 µM [3]	remaining activity at 2.5 µM [4]	remaining activity at 2.5 µM [5]	remaining activity at 2.5 µM [6]
CN1CCCC1CCNC(=O)c1cn2c3c(c(N4CCC(c5cnccn5)C4)c(F)cc3c1=O)Oc1cc3ccccc3cc1-2 (stereo not drawn) [Compound A-1]	87%	122%	108%	94%	110%	56%
CC(=O)N1CCN(c2ccc3c(=O)c(C(=O)NCCN4CCCC4)c4n(C)c5ccccc5n4c3n2)CC1 [Compound B-1]	92%	117%	106%	99%	102%	113%
